{
  "source": "patent US11479534B2",
  "about": "“Compound and use thereof in medicine” (Changsha Hooz Bioscience And Technology Co., Ltd, priority 2018, dated 2022)",
  "key": {"[1]": {"system": "prostate cancer cells PC3", "assay": "MTS cell survival assay, PC3", "assay_type": "cell-based", "procedure": "(§1) Culturing prostate cancer cells PC3 and DU145 cells, as well as non-cancerous normal cells (5000 cells/well) in a 96-well cell culture dish, and then using different doses of said compound M3 to treat prostate cancer cells PC3 and DU145 cells and normal […] cells RWPE1 and HPrEC. After 72 hours, detecting the survival rate of the cells by MTS method, and calculate […] of said compound M3 for different cells using software."}, "[2]": {"system": "HPrEC cells", "assay": "MTS cell survival assay, HPrEC", "assay_type": "cell-based", "settings": "HPrEC normal cells, 72 hours", "procedure": "as §1"}, "[3]": {"system": "prostate cancer DU145 cells xenograft tumor", "assay": "Subcutaneous xenograft model of prostate cancer DU145 cells in nude mouse", "assay_type": "in vivo", "settings": "100 mg/kg/day intragastrically, 5 days a week, 4 weeks; compared with control compound M1", "procedure": "Establishing a subcutaneous xenograft model of prostate cancer DU145 cells (1×106) in immunodeficient mouse by subcutaneous injection, allowing around 2-3 weeks for the xenograft to grow into a size of around 250 mm3, and then intragastrically administering the compound M3 of the present invention (100 mg/kg/day) once a day, 5 days a week with 2 days rest in between, for a total of 4 weeks of continuous treatment. Said […] and solvent DMSO are used as controls. Tumor size is measured before treatment and every 3 days after treatment begins. The size of the tumor is calculated according to the formula V=length×width 2/2."}, "[4]": {"target": "T1, UHRF1 (Homo sapiens, UniProt Q96T88)", "T1 construct": "reduces the protein level of the oncogene UHRF1 in prostate cancer cells in a dose-dependent manner; endogenous in cells; host or cells: DU145", "T1 sequence (Q96T88 1-793)": "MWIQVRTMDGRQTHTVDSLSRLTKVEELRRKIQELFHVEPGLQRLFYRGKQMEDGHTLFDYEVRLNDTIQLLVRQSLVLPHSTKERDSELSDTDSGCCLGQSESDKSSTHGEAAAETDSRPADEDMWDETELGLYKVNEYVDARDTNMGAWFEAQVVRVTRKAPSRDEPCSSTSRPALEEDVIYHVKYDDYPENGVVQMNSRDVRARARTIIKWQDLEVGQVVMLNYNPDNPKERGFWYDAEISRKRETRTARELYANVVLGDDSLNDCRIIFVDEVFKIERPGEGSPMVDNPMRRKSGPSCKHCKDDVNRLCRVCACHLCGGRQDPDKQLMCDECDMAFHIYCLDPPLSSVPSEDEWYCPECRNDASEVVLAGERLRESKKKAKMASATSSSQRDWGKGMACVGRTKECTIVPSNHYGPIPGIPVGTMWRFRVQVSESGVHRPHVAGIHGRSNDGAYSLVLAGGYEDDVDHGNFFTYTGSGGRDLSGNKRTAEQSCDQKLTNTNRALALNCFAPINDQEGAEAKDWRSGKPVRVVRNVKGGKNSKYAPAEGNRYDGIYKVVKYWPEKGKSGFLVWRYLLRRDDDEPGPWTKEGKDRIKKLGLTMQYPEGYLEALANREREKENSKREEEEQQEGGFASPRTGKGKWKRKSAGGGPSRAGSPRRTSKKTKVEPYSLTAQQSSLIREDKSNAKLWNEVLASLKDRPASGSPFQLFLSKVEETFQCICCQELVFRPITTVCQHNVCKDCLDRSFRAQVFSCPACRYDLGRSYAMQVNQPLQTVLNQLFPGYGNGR", "assay": "Western blot of UHRF1 protein level in treated DU145 cells", "assay_type": "cell-based", "procedure": "(§2) Culturing a same amount of prostate cancer cell line DU145 in each well of a 6-well culture dish, allowing cell adhesion for 24 hours, and then using different doses of said compound M3 (50, 100 and 150 μM) to treat the prostate cancer cell DU145, and using said compound M1 as a control drug. After 24 hours, harvest the cells for Western blot to detect the protein levels of UHRF1, histone H3 and acetylated histone H3. […] The results of this experiment verifies that the compound M3 of the present invention specifically dual-targeting UHRF1 and HDAC molecules."}, "[5]": {"system": "HDAC1", "assay": "Western blot of acetylated histone H3 and total histone H3 in treated DU145 cells (HDAC targeting)", "assay_type": "cell-based", "settings": "DU145 cells, 50, 100 and 150 μM, 24 hours, Western blot (FIG. 1)", "procedure": "as §2"}, "[6]": {"target": "T2, HDAC1 (Homo sapiens, UniProt Q13547)", "T2 construct": "endogenous in cells; host or cells: DU145", "T2 sequence (Q13547 whole entry)": "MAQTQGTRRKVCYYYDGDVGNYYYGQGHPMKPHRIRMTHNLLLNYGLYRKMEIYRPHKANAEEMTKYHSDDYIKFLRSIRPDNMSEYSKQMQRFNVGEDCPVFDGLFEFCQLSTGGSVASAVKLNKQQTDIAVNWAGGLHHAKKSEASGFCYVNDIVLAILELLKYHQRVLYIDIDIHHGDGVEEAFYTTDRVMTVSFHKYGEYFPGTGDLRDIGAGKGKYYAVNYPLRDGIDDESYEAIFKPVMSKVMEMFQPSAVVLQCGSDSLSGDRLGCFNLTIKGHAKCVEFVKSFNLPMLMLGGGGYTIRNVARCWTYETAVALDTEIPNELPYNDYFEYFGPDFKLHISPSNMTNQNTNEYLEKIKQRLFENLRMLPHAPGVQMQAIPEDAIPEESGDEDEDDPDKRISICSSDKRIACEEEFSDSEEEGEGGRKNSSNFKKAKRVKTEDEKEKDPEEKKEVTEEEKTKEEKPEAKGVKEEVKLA", "assay": "Western blot of acetylated histone H3 and total histone H3 in treated DU145 cells (HDAC targeting)", "assay_type": "cell-based", "settings": "FIG. 6, M2 and M3 under the same dose", "procedure": "as §2"}, "[7]": {"system": "DNMT1", "assay": "Western blot of DNMT1 protein expression in treated DU145 cells", "assay_type": "cell-based", "settings": "24 hours, Western blot (FIG. 1)"}, "[8]": {"system": "prostate cancer cells DU145", "assay": "MTS cell survival assay, DU145", "assay_type": "cell-based", "settings": "Homo sapiens, DU-145, DU145, 72 hours, read-out: half inhibitory dose (IC50)", "procedure": "as §1"}, "[9]": {"system": "RWPE1 cells", "assay": "MTS cell survival assay, RWPE1", "assay_type": "cell-based", "settings": "Homo sapiens, RWPE-1, RWPE1 normal cells, 72 hours", "procedure": "as §1"}, "[10]": {"assay": "Safety in nude mouse: weight and serum biochemical indicators", "assay_type": "in vivo", "settings": "200 mg/kg/day intragastrically, 4 weeks", "procedure": "Intragastrically administering the compound M3 of the present invention (200 mg/kg/day) in an immunodeficient nude mouse once a day, 5 days a week with 2 days rest in between, for a total of 4 weeks of continuous treatment; using solvent DMSO as a control. Weight of the nude mouse is measured before treatment and every 3 days after the treatment begins. When the experiment ends, extract blood from the nude mouse, separate blood serum, and detect the changes in biochemical indicators, including: aspartate aminotransferase (AST) and alanine aminotransferase (ALT) indicative of liver function, blood urea nitrogen (BUN) and creatinine (CREA) indicative of kidney function, and creatine kinase (CK) and l lactate dehydrogenase (LDH-L) indicative of heart function, to evaluate the effect of […] on heart, liver and kidney functions."}},
  "data": [
    {"smiles": "O=C(CCCCCCC(=O)Nc1c[nH]c(=O)[nH]c1=O)NO", "note": "[M3, N1-(carbonyl-5-aminouracil)-N8-octylhydroxyamide]", "values": [
      {"measurement": "IC50", "setting": "[1]; PC3, 72 hours, MTS, read-out: half inhibitory dose (IC50)", "result": "< 50", "unit": "µM"},
      {"measurement": "selectivity for killing prostate cancer cells", "setting": "[1]; PC3 and DU145 compared with RWPE1 and HPrEC", "result": "good selectivity for killing prostate cancer cells"},
      {"measurement": "IC50", "setting": "[2]", "result": "> 300", "unit": "µM"},
      {"measurement": "tumor growth", "setting": "[3]", "result": "significantly reduces tumor growth compared with the control compound M1"},
      {"measurement": "protein level of UHRF1", "setting": "[4]; DU145 cells, 50, 100 and 150 μM, 24 hours, Western blot (FIG. 1)", "result": "specifically reduces the protein level of the oncogene UHRF1 in prostate cancer cells in a dose-dependent manner"},
      {"measurement": "protein level of UHRF1 target", "setting": "[4]; FIG. 6, M2 and M3 under the same dose", "result": "significantly reduces the protein stability of UHRF1"},
      {"measurement": "acetylation level of histone H3", "setting": "[5]", "result": "causes an increase in acetylation level of histone H3"},
      {"measurement": "total histone H3 level", "setting": "[5]", "result": "not affected"},
      {"measurement": "activity of HDAC1 (acetylated histone H3)", "setting": "[6]", "result": "significantly inhibits the activity of HDAC1"},
      {"measurement": "protein expression of DNMT1", "setting": "[7]", "result": "significantly reduced"},
      {"measurement": "IC50", "setting": "[8]", "result": "< 50", "unit": "µM"},
      {"measurement": "IC50", "setting": "[9]", "result": "> 300", "unit": "µM"},
      {"measurement": "weight of the nude mouse", "setting": "[10]", "result": "does not significantly reduce the weight"},
      {"measurement": "heart function (CK, LDH-L)", "setting": "[10]; blood serum", "result": "no significant effect"},
      {"measurement": "kidney function (BUN, CREA)", "setting": "[10]; blood serum", "result": "no significant effect"},
      {"measurement": "liver function (AST, ALT)", "setting": "[10]; blood serum", "result": "no significant effect"}
    ]}
  ]
}
